Results reported in patent US7138145B2, “Method and apparatus for ozination of grain” (priority 2001, dated 2006).

Tests used:
insects [1] = conditions: fumigation of the grain; cited from earlier work
[2] = system: mold, fungus, and some bacteria; conditions: fumigation of the grain; cited from earlier work
[3] = system: mold, bacteria, and fungus; experiment: ozonation of grain stored in an elevator: treatment of mold, bacteria and fungus
From the text: (§1) It is an object of some embodiments of the present invention to provide a method for treating grain for fungus, mold, bacteria, dust, and insects by exposing the grain to a high concentration of ozone for an extended period of time. The present invention utilizes a powerful fan or fans placed at the bottom of the grain storage facility such as, for example, a silo or grain elevator to draw down through the grain a flow of gas containing ozone between 50 and 100 ppm. Ozone generators placed in the head space at the top of the elevator produce ozone in a concentration in excess of 100 ppm. Monitors placed in this head space assure that the ozone concentration remains at these levels. If the ozone generators are not capable of maintaining the concentration at 100 ppm in the head space, then the draw is reduced by slowing the fan speed. A duct takes drawn gases from the bottom of the elevator and re-circulates those gases into the head space to reduce the amount of ozone needed to be generated during a second pass. To assure that the gases come in contact with all of the grain in the elevator, a technique labeled “pulling the core” is utilized wherein a quantity of grain is removed from the bottom of the elevator at its center to remove a column of grain from the core of the column of grain thereby evenly distribute the grain within the elevator. The material which is pulled from the core is then sent back to the top of the column and evenly distributed across the top.
(§2) The following discussion is directed towards grain stored within a vertical elevator 10. […] In one embodiment, a quantity of ozone is injected into a grain bin, vessel, or truck prior to the grain being loaded into said container in order to treat the grain for mold, bacteria, fungi, and biological load as the grain is loaded. […] In this embodiment, the loading bin is partially enclosed and has injected therein a sufficient quantity of ozone to create a concentration of approximately 100 ppm within the loading bin and the enclosed auger. […]

insects [4] = experiment: ozonation of grain stored in an elevator: killing of insects
From the text: as §1, §2

[5] = flow of gas containing ozone between 50 and 100 ppm
[6] = ozone concentration maintained for three days
[7] = ozone drawn through grain, over 100 ppm in head space, 50 ppm at bottom of column

SMILES | effect of fumigation on insects (insects [1]) | effect of fumigation on mold, fungus and some bacteria [2] | time within which mold and bacteria begin to die [3, 5] | destruction of mold, bacteria and fungus [3, 6] | time after which smell from mold and fungus disappears [3, 7] [h] | time within which some insects begin to die (insects [4]; [5]) | destruction of insects (insects [4]; [6]) | exposure after which some insects are killed (insects [4]; [7]) [h]
P [phosphine] | effective at killing insects | not been effective | – | – | – | – | – | –
CBr [methyl bromide] | effective at killing insects | not been effective | – | – | – | – | – | –
O=[O+][O-] [ozone] | – | – | twenty-four | almost all insect, mold, bacteria, and fungus will be destroyed | 24 | twenty-four | almost all insect, mold, bacteria, and fungus will be destroyed | 12
